Results as given in US11911356B2, “Regulation of mutant TERT by BRAF V600E/map kinase pathway through FOS/GABP in human cancer” (THE JOHNS HOPKINS UNIVERSITY, priority 2017, dated 2024).

What was measured:
MYC expression = experiment: Western blotting of MYC in BRAF V600E cancer cell lines; assay type: cell-based, human; conditions: four cancer cell lines harboring BRAF V600E; 0.5 uM PLX4032, 24 hours
Experimental: FIG. 3A-3C. MYC regulated TERT expression in a TERT promoter mutation-independent manner. (FIG. 3A) The four indicated cancer cell lines harboring BRAF V600E mutation were treated with 0.5 uM PLX4032 and/or 10 nM MYC-specific siRNA (siMYC) for 24 hours, which were then subjected to Western blotting (upper panel) and qRT-PCR (lower panel). The relative TERT mRNA expression was normalized to the control group. (FIG. 3B, 3C) Parental and BRAF V600E knock-in SW48 cells were treated with control siRNA (siControl) or MYC-specific siRNA (siMYC, 10 nM) for 48 h, followed by Western blotting (FIG. 3B) and luciferase reporter assays (FIG. 3C). *P<0.05, **P<0.01, ***P<0.001, by 2-tailed Student's t test. n.s., not significant. All the values represent the average standard deviation (SD) of triplicate samples from a typical experiment. Similar results were obtained in two additional independent experiments.
(§1) Cells were lysed in the RIPA buffer (#sc-24948; Santa Cruz Biotechnology, Santa Cruz, CA) with protease inhibitor cocktail (#P8340; Sigma-Aldrich) and phosphatase inhibitor cocktail (#P0044; Sigma-Aldrich) and Western blotting analysis was performed as we previously described^54. […] Signals were detected by SuperSignal™ West Pico PLUS Chemiluminescent Substrate (#34579; Thermo Fisher Scientific). […]

FOS phosphorylation = experiment: Western blotting of phosphorylated FOS in K1 and A375 cells; assay type: cell-based, human; conditions: 0.5 uM PLX4032 for 0, 1 and 24 hours
Experimental: FIG. 6A-6J. BRAF V600E promoted FOS binding to GABPB by upregulating FOS phosphorylation. (FIG. 6A) Western blotting analyses for phosphorylated-FOS (p-FOS), total FOS (t-FOS), BRAF, and beta-actin in K1 and A375 cells with or without stable BRAF knockdown. (FIG. 6B) Western blotting analyses of p-FOS, t-FOS, p-ERK, and beta-actin in K1 and A375 cells treated with 0.5 uM PLX4032 for 0, 1, and 24 hours. (FIG. 6C-6E) Effects of FOS phosphorylation on GABPB and TERT activation. (FIG. 6C) KAT18 cells were serum-starved for 24 hours and transiently transfected with FOS wild-type (FOS-wt) or mutant (FOS-mut) bearing none of the potential ERK-targeted phosphorylation sites, followed by Western blotting analysis for TERT, GABPB, p-FOS, t-FOS, and beta-actin. (FIG. 6D) KAT18 cells were transfected with FOS-wt or FOS-mut along with GABPB 5′-UTR luciferase reporter and Renilla luciferase (pRL-TK) plasmids in the absence of serum for 24 hours, and the luciferase activities were then measured. […]
as §1

## CCCS(=O)(=O)Nc1ccc(F)c(C(=O)c2c[nH]c3ncc(-c4ccc(Cl)cc4)cc23)c1F [PLX4032]
MYC expression
  MYC expression: suppressed MYC expression
FOS phosphorylation
  phosphorylation of FOS: significantly decreased the phosphorylation of FOS
